Results taken from US20230322797A1, “SOLID FORMS, PHARMACEUTICAL COMPOSITIONS AND PREPARATION OF HETEROAROMATIC MACROCYCLIC ETHER COMPOUNDS” (Nuvalent, Inc., priority 2022, published 2023).

Assay: Desolvation experiments on solvated forms (heating, then XRPD)
Assay type: physicochemical
Conditions: target temperature 105 °C, after desolvation
Experimental: Desolvation experiments were carried out on the solvated forms identified during the polymorph screen to establish the relationships between the forms. Samples were heated to a temperature at which the solids fully desolvated (based on TG/DSC characterisation data) and where exothermic events were observed after desolvation a separate experiment was carried out to assess for additional solid forms.

SMILES	Solid Form post-heating
CCn1nc(Cl)c2c1-c1cnc(N)c(c1)O[C@H](C)c1cc(F)ccc1-c1nn(C)cc1C2 [Form 1]	Form 2

Same assay, conditions: target temperature 130 °C, after desolvation

SMILES	Solid Form post-heating
CCn1nc(Cl)c2c1-c1cnc(N)c(c1)O[C@H](C)c1cc(F)ccc1-c1nn(C)cc1C2 [Form 11]	Form 2

Same assay, conditions: target temperature 132 °C, after desolvation

SMILES	Solid Form post-heating
CCn1nc(Cl)c2c1-c1cnc(N)c(c1)O[C@H](C)c1cc(F)ccc1-c1nn(C)cc1C2 [Form 4]	Form 2

Same assay, conditions: target temperature 134 °C, after desolvation

SMILES	Solid Form post-heating
CCn1nc(Cl)c2c1-c1cnc(N)c(c1)O[C@H](C)c1cc(F)ccc1-c1nn(C)cc1C2 [Form 7]	Form 2

Same assay, conditions: target temperature 150 °C, after desolvation

SMILES	Solid Form post-heating
CCn1nc(Cl)c2c1-c1cnc(N)c(c1)O[C@H](C)c1cc(F)ccc1-c1nn(C)cc1C2 [Form 10]	Form 2
CCn1nc(Cl)c2c1-c1cnc(N)c(c1)O[C@H](C)c1cc(F)ccc1-c1nn(C)cc1C2 [Form 12]	Form 2
CCn1nc(Cl)c2c1-c1cnc(N)c(c1)O[C@H](C)c1cc(F)ccc1-c1nn(C)cc1C2 [Form 1]	Form 2
CCn1nc(Cl)c2c1-c1cnc(N)c(c1)O[C@H](C)c1cc(F)ccc1-c1nn(C)cc1C2 [Form 9]	Form 2
CCn1nc(Cl)c2c1-c1cnc(N)c(c1)O[C@H](C)c1cc(F)ccc1-c1nn(C)cc1C2 [Form 8]	Form 2
CCn1nc(Cl)c2c1-c1cnc(N)c(c1)O[C@H](C)c1cc(F)ccc1-c1nn(C)cc1C2 [Form 15]	Amorphous
CCn1nc(Cl)c2c1-c1cnc(N)c(c1)O[C@H](C)c1cc(F)ccc1-c1nn(C)cc1C2 [Form 13]	Form 2

Same assay, conditions: target temperature 170 °C, after exothermic event

SMILES	Solid Form post-heating
CCn1nc(Cl)c2c1-c1cnc(N)c(c1)O[C@H](C)c1cc(F)ccc1-c1nn(C)cc1C2 [Form 4]	Form 2

Same assay, conditions: target temperature 200 °C, after exothermic event

SMILES	Solid Form post-heating
CCn1nc(Cl)c2c1-c1cnc(N)c(c1)O[C@H](C)c1cc(F)ccc1-c1nn(C)cc1C2 [Form 11]	Form 2
CCn1nc(Cl)c2c1-c1cnc(N)c(c1)O[C@H](C)c1cc(F)ccc1-c1nn(C)cc1C2 [Form 8]	Form 2
CCn1nc(Cl)c2c1-c1cnc(N)c(c1)O[C@H](C)c1cc(F)ccc1-c1nn(C)cc1C2 [Form 15]	Form 2
